Source: the supplement of paper PMC10307832

What was measured:
Experiment in all cases: relative viability (nuclei count vs DMSO), 5 days (fraction); higher = more cells survive
AZD5582 + Crizotinib = compound: C[C@@H](C(=O)N[C@@H](C1CCCCC1)C(=O)N2CCC[C@H]2C(=O)N[C@@H]3[C@@H](CC4=CC=CC=C34)OCC#CC#CCO[C@@H]5CC6=CC=CC=C6[C@@H]5NC(=O)[C@@H]7CCCN7C(=O)[C@H](C8CCCCC8)NC(=O)[C@H](C)NC)NC [AZD5582] + C[C@@H](Oc1cc(-c2cnn(C3CCNCC3)c2)cnc1N)c1c(Cl)ccc(F)c1Cl [Crizotinib] (partner 1 µM)
Summary of the method: (§1)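 Relative viability divides the nuclei count in treated wells by that in vehicle wells. Lung cancer cell lines were seeded in 1536-well plates, dosed by pin tool the next day, and fixed and stained after 5 days in one step with final 0.05% Triton X-100, 1% formaldehyde and 1 ug/ml Hoechst. Dosing was a single drug or a fixed anchor-drug dose plus five library-drug doses (not always all listed) in √10 steps, and values are medians of duplicate plates imaged at 4×.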

AZD5582 + Linsitinib = compound: C[C@@H](C(=O)N[C@@H](C1CCCCC1)C(=O)N2CCC[C@H]2C(=O)N[C@@H]3[C@@H](CC4=CC=CC=C34)OCC#CC#CCO[C@@H]5CC6=CC=CC=C6[C@@H]5NC(=O)[C@@H]7CCCN7C(=O)[C@H](C8CCCCC8)NC(=O)[C@H](C)NC)NC [AZD5582] + C[C@]1(O)C[C@@H](c2nc(-c3ccc4ccc(-c5ccccc5)nc4c3)c3c(N)nccn32)C1 [Linsitinib] (partner 1 µM)
Summary of the method: as §1

[1] = compound: Cn1nnc2c(C(N)=O)ncn2c1=O [Temozolomide] + CC(=O)c1c(C)c2cnc(Nc3ccc(N4CCNCC4)cn3)nc2n(C2CCCC2)c1=O [Palbociclib] (partner 0.5 µM)
Summary of the method: as §1

[2] = compound: Cn1nnc2c(C(N)=O)ncn2c1=O [Temozolomide] + Nc1ncn([C@H]2C[C@H](O)[C@@H](CO)O2)c(=O)n1 [Decitabine] (partner 2 µM)
Summary of the method: as §1

Cell Line | relative viability (AZD5582 + Crizotinib; first compound 0.001581 µM) | relative viability (AZD5582 + Crizotinib; first compound 0.005 µM) | relative viability (AZD5582 + Crizotinib; first compound 0.01581 µM) | relative viability (AZD5582 + Crizotinib; first compound 0.05 µM) | relative viability (AZD5582 + Linsitinib; first compound 0.001581 µM) | relative viability (AZD5582 + Linsitinib; first compound 0.005 µM) | relative viability (AZD5582 + Linsitinib; first compound 0.01581 µM) | relative viability (AZD5582 + Linsitinib; first compound 0.05 µM) | relative viability ([1]; first compound 0.2 µM) | relative viability ([1]; first compound 0.6325 µM) | relative viability ([1]; first compound 2 µM) | relative viability ([1]; first compound 6.325 µM) | relative viability ([1]; first compound 20 µM) | relative viability ([2]; first compound 0.2 µM) | relative viability ([2]; first compound 0.6325 µM) | relative viability ([2]; first compound 2 µM) | relative viability ([2]; first compound 6.325 µM) | relative viability ([2]; first compound 20 µM)
NCI-H1792 | 0.903 | 1.01 | 0.908 | 1.08 | 0.49 | 0.588 | 0.516 | 0.792 | 0.569 | 0.654 | 0.638 | 0.663 | 0.619 | 0.434 | 0.599 | 0.407 | 0.549 | 0.54
NCI-H1915 | 0.854 | 0.916 | 0.915 | 0.882 | 1.08 | 1.13 | 1.11 | 0.905 | 0.546 | 0.483 | 0.521 | 0.399 | 0.228 | 0.246 | 0.266 | 0.277 | 0.268 | 0.223
NCI-H1944 | 0.914 | 1.07 | 1.09 | 1.07 | 1.15 | 1.4 | 1.21 | 1.44 | 0.335 | 0.341 | 0.345 | 0.341 | 0.298 | 0.398 | 0.389 | 0.439 | 0.368 | 0.399
NCI-H1975 | 1.07 | 1.1 | 0.938 | 1.04 | 1.08 | 1.04 | 1.01 | 1.25 | 0.575 | 0.608 | 0.564 | 0.606 | 0.485 | 0.401 | 0.42 | 0.399 | 0.372 | 0.355
NCI-H1993 | 0.824 | 0.826 | 0.819 | 0.915 | 0.688 | 0.657 | 0.724 | 0.705 | 0.558 | 0.772 | 0.618 | 0.755 | 0.589 | 0.535 | 0.69 | 0.607 | 0.654 | 0.513
NCI-H2009 | 1.01 | 1.03 | 0.993 | 1.02 | 1.2 | 1.21 | 1.2 | 1.16 | 0.274 | 0.217 | 0.238 | 0.224 | 0.225 | 0.353 | 0.404 | 0.417 | 0.355 | 0.397
NCI-H2023 | 0.567 | 0.635 | 0.576 | 0.703 | 0.666 | 0.741 | 0.691 | 0.677 | 0.407 | 0.377 | 0.377 | 0.379 | 0.346 | 0.279 | 0.227 | 0.225 | 0.211 | 0.201
NCI-H2085 | 0.732 | 0.874 | 0.854 | 0.754 | 0.755 | 0.9 | 0.891 | 0.938 | 0.487 | 0.487 | 0.457 | 0.454 | 0.449 | 0.63 | 0.599 | 0.587 | 0.589 | 0.471
NCI-H2087 | 0.689 | 0.911 | 0.692 | 0.937 | 0.879 | 0.948 | 0.961 | 0.902 | 0.254 | 0.239 | 0.224 | 0.259 | 0.225 | 0.306 | 0.314 | 0.322 | 0.281 | 0.299
NCI-H2126 | 1.04 | 0.932 | 0.967 | 0.662 | 0.666 | 0.709 | 0.715 | 0.745 | 0.347 | 0.332 | 0.349 | 0.355 | 0.345 | 0.554 | 0.611 | 0.596 | 0.639 | 0.589
NCI-H2347 | 0.657 | 0.601 | 0.509 | 0.701 | 0.914 | 1.08 | 0.972 | 0.952 | 0.442 | 0.473 | 0.388 | 0.408 | 0.474 | 0.613 | 0.645 | 0.669 | 0.595 | 0.604
NCI-H2405 | 0.785 | 0.957 | 0.804 | 0.9 | 0.954 | 0.989 | – | 1 | 0.442 | 0.576 | 0.518 | 0.5 | 0.508 | 0.773 | 0.779 | 0.863 | 0.699 | 0.673
NCI-H3122 | 0.264 | 0.305 | 0.298 | 0.247 | 1.02 | 1.03 | 0.967 | 0.313 | 0.206 | 0.202 | 0.175 | 0.174 | 0.153 | 0.438 | 0.484 | 0.611 | 0.478 | 0.378
PC-3 [JPC-3] | 0.862 | 0.882 | 0.97 | 0.314 | 0.933 | 0.944 | 1.04 | 0.691 | 0.541 | 0.554 | 0.543 | 0.545 | 0.433 | 0.787 | 0.854 | 0.886 | 0.762 | 0.498
PC-14 | 0.787 | 0.835 | 0.909 | 0.742 | 0.895 | 1.02 | 0.902 | 0.958 | 0.706 | 0.515 | 0.472 | 0.527 | 0.415 | 0.27 | 0.241 | 0.245 | 0.21 | 0.182
RERF-LC-KJ | 0.525 | 0.516 | 0.792 | 0.782 | 0.525 | 0.481 | 0.879 | 0.464 | 1.02 | 1.1 | 1.11 | 1.17 | 1.02 | 0.738 | 0.78 | 0.733 | 0.617 | 0.712
SK-LU-1 | 0.365 | 0.272 | 0.91 | 0.152 | 0.613 | 0.495 | 1.23 | 0.273 | 0.382 | 0.397 | 0.431 | 0.33 | 0.318 | 0.683 | 0.671 | 0.575 | 0.458 | 0.477
